One experiment deals with T1, mutant MGL (Homo sapiens, UniProt Q99685, L169S/L176S).
T1 sequence (Q99685 1-303 L169S/L176S): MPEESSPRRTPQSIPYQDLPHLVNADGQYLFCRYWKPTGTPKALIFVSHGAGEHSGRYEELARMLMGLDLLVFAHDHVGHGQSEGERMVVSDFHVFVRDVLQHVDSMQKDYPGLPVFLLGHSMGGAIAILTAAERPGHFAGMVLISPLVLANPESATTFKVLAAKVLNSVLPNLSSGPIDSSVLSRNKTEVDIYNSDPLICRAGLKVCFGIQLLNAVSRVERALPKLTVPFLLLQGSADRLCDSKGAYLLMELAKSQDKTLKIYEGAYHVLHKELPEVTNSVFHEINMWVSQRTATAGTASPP
Description: MGL ThermoFluor assay - mutant. The class given is binding. In general terms: DSF heats the sample and reads unfolding from a dye or from intrinsic fluorescence.

Experiment [1] addresses T2, purified wild type MGL (wt-MGLL 6H-11-313) (Homo sapiens, UniProt Q99685).
T2 sequence (Q99685 1-303): T1 sequence (Q99685 1-303 L169S/L176S) with S169L, S176L

The mark [2] stands for this setting: compound concentration measured by qNMR, read-out: MGL mutant ThermoFluor qKd (using qNMR conc.).
[3] abbreviates: ThermoFluor concentration-response, read-out: MGL mutant ThermoFluor Kd.
Where [4] appears, read: ThermoFluor, compound concentration measured by qNMR, read-out: MGL mutant ThermoFluor qKd (μM) (using qNMR conc.).
Setting [5] is: ThermoFluor, compound concentration measured by qNMR, read-out: MGL mutant ThermoFluor qKd (using qNMR conc.).
Where [6] appears, read: ThermoFluor thermal stability binding assay, read-out: MGL mutant ThermoFluor Kd.

Changes are numbered by the printed parent chain. Read-outs that look alike come from different tables or passages of the source.

As for `COc1c(C(=O)N2CC(N3CCN(C(=O)c4nccs4)CC3)C2)sc2cc(C(F)(F)F)ccc12` [Cpd 649, 1-(1-{[3-Methoxy-6-(trifluoromethyl)-1-benzothiophen-2-yl]carbonyl}azetidin-3-yl)-4-(1,3-thiazol-2-ylcarbonyl)piperazine], at mutant MGL (setting [2]), the Kd stood at 0.001 µM. The half-inhibitory concentration (IC50) in experiment [1] was 6 nM.
For `O=C(c1ccc2c(cnn2Cc2ccc(C(F)(F)F)cc2)c1)N1CC(N2CCN(C(=O)c3nccs3)CC2)C1` [Cpd 1036, 5-({3-[4-(1,3-Thiazol-2-ylcarbonyl)piperazin-1-yl]azetidin-1-yl}carbonyl)-1-[4-(trifluoromethyl)benzyl]-1H-indazole], in that order: 0.005 µM and under 5 nM.
Take `O=C(c1ccc(-n2cnc3ccccc32)cc1)N1CCN(C2CN(C(=O)c3cscn3)C2)CC1` [Cpd 1305]: at mutant MGL (setting [3]), the Kd came to 0.833 µM. The same compound displayed an IC50 in experiment [1] of 6680 nM.
With `O=C(c1ccc2c(ccn2-c2cc(F)ccc2F)c1)N1CC(N2CCN(C(=O)c3nccs3)CC2)C1` [Cpd 1373], the Kd at mutant MGL (setting [4]) was found to be 0.004 µM. In addition, the 50% inhibitory concentration (IC50) in experiment [1] is under 5 nM.
For `Cc1nccc(-n2ccc3cc(C(=O)N4CC(N5CCN(C(=O)c6nccs6)CC5)C4)ccc32)n1` [Cpd 1216, 1-(2-Methylpyrimidin-4-yl)-5-({3-[4-(1,3-thiazol-2-ylcarbonyl)piperazin-1-yl]azetidin-1-yl}carbonyl)-1H-indole], the Kd on mutant MGL (setting [5]) was 0.022 µM. Half-maximal inhibition in experiment [1] (IC50) required 216 nM.
Consider `O=C(c1ccc2nn(-c3cccc(C(F)(F)F)c3)cc2c1)N1CC(N2CCN(C(=O)c3nccs3)CC2)C1` [Cpd 1420], for which the Kd at mutant MGL (setting [4]) stood at 0.08 µM. Half-maximal inhibition in experiment [1] (IC50) was put at 5 nM.
`O=C(c1ccc2c(ccn2CC(F)F)c1)N1CC(N2CCN(C(=O)c3cscn3)CC2)C1` [Cpd 813]: the Kd at mutant MGL (setting [2]) was found to be 0.499 µM. This compound returned an IC50 in experiment [1] of 2420 nM.
Turning to `O=C(c1cc2cc(Br)cnc2o1)N1CC(N2CCN(C(=O)c3nccs3)CC2)C1` [Cpd 864], the Kd at mutant MGL (setting [3]) is 2.41 µM. The IC50 in experiment [1] was found to be 10200 nM.
Turning to `Cc1nc2ccc(Cl)cc2cc1C(=O)N1CC(N2CCN(C(=O)c3nccs3)CC2)C1` [Cpd 835], the Kd at mutant MGL (setting [5]) came to 2.45 µM. This compound also gave an IC50 in experiment [1] of 4700 nM.
Regarding `O=C(c1ccc2c(ccn2-c2cncnc2)c1)N1CC(N2CCN(C(=O)c3nccs3)CC2)C1` [Cpd 1263, 1-Pyrimidin-5-yl-5-({3-[4-(1,3-thiazol-2-ylcarbonyl)piperazin-1-yl]azetidin-1-yl}carbonyl)-1H-indole], on mutant MGL (setting [5]), the Kd is 0.215 µM. In experiment [1], the half-inhibitory concentration (IC50) stood at 968 nM.
`O=C(c1ccc(-c2cccc(C(F)(F)F)c2)cc1)N1CC(N2CCN(C(=O)c3ncco3)CC2)C1` [Cpd 1085]: the Kd at mutant MGL (setting [4]) worked out at 0.008 µM. The compound further yielded an IC50 in experiment [1] of 9 nM.
As for `O=C(c1cccc(-c2ccc(F)cc2F)c1)N1CC(N2CCN(C(=O)c3cscn3)CC2)C1` [Cpd 1239], the Kd at mutant MGL (setting [3]) worked out at 3.04 µM. For the same compound, the IC50 in experiment [1] came out at 449 nM.
With `O=C(c1ccccc1)N1CCN(C2CN(C(=O)c3ccc4nc(-c5cccc(F)c5)sc4c3)C2)CC1` [Cpd 599], the Kd on mutant MGL (setting [6]) came to 0.481 µM. The same compound showed an IC50 in experiment [1] of 1030 nM.
For the compound `O=C(c1cscn1)N1CCN(C2CN(C(=O)c3cn(-c4ccc(F)cc4)c4ccccc34)C2)CC1` [Cpd 1295], the Kd on mutant MGL (setting [4]) came to 1.51 µM. This compound also showed an IC50 in experiment [1] of 3280 nM.
For `O=C(c1nccs1)N1CC(N2CCN(C(=O)c3[nH]c4nc(C(F)(F)F)ccc4c3Br)CC2)C1` [Cpd 746], at mutant MGL (setting [5]), the Kd turned out to be 0.263 µM. Besides, the IC50 in experiment [1] was determined as 373 nM.
Take `O=C(c1ccc2[nH]ncc2c1)N1CC(N2CCN(C(=O)c3nccs3)CC2)C1` [Cpd 820, 5-({3-[4-(1,3-Thiazol-2-ylcarbonyl)piperazin-1-yl]azetidin-1-yl}carbonyl)-1H-indazole]: the Kd at mutant MGL (setting [4]) worked out at 0.996 µM. In addition, half-maximal inhibition in experiment [1] (IC50) was put at 2810 nM.
In the case of `CC(=O)N1CC[C@@H](c2ccccc2C(=O)N2CC(N3CCN(C(=O)c4ccccc4)CC3)C2)C1` [Cpd 1486], at mutant MGL (setting [6]), the Kd is over 31.2 µM. In experiment [1], this compound returned an IC50 of over 16700 nM.
For `Cc1ccc2c(C(F)(F)F)c(C(=O)N3CC(N4CCN(C(=O)c5nccs5)CC4)C3)sc2c1` [Cpd 707, 1-(1-{[6-Methyl-3-(trifluoromethyl)-1-benzothiophen-2-yl]carbonyl}azetidin-3-yl)-4-(1,3-thiazol-2-ylcarbonyl)piperazine], the Kd on mutant MGL (setting [3]) stood at 0.002 µM. Besides, the IC50 in experiment [1] amounted to 105 nM.
`C[C@@H]1CN(C2CN(C(=O)c3cc4ccc(C(F)(F)F)cc4s3)C2)C[C@H](C)N1C(=O)c1nccs1` [Cpd 954, (2R,6S)-2,6-Dimethyl-1-(1,3-thiazol-2-ylcarbonyl)-4-(1-{[6-(trifluoromethyl)-1-benzothiophen-2-yl]carbonyl}azetidin-3-yl)piperazine]: the Kd on mutant MGL (setting [5]) was determined as 3.44 µM. Besides, the IC50 in experiment [1] was determined as 2740 nM.
For `O=C(c1ccc(-c2cccc(C(F)(F)F)c2)cc1)N1CC(N2CCN(C(=O)c3cnco3)CC2)C1` [Cpd 1169], the Kd on mutant MGL (setting [4]) worked out at 0.053 µM. Also, the concentration for half-maximal inhibition (IC50) in experiment [1] was 55 nM.
In the case of `O=C(c1cscn1)N1CCN(C2CN(C(=O)c3cc(-c4ccccc4)ccc3Cl)C2)CC1` [Cpd 1288], at mutant MGL (setting [3]), the Kd worked out at 2.16 µM. Further, the IC50 in experiment [1] was 2510 nM.
For `O=C(c1ccc2c(c1)CCN2Cc1ccccc1)N1CC(N2CCN(C(=O)c3nccs3)CC2)C1` [Cpd 994, 1-Benzyl-5-({3-[4-(1,3-thiazol-2-ylcarbonyl)piperazin-1-yl]azetidin-1-yl}carbonyl)-2,3-dihydro-1H-indole], in that order: 0.002 µM and 13 nM.
For `Cc1c(C(=O)N2CCN(C3CN(C(=O)c4nc(C(F)(F)F)cs4)C3)CC2)sc2cc(C(F)(F)F)ccc12` [Cpd 814] the same measures were over 31 µM and 2430 nM.
As to `O=C(c1ccc(OCc2cncc(Cl)c2)cc1)N1CC(N2CCN(C(=O)C(F)(F)F)CC2)C1` [Cpd 979], on mutant MGL (setting [2]), the Kd stood at 1.14 µM. This compound came in with an IC50 in experiment [1] of 648 nM.
In the case of `O=C(c1ccc(-c2cccc(C(F)(F)F)c2)cc1)N1CC(N2CCN(C(=O)C3CC3)CC2)C1` [Cpd 1057], on mutant MGL (setting [4]), the Kd amounted to 0.016 µM. Also, the half-inhibitory concentration (IC50) in experiment [1] came to 6 nM.
As for `O=C(c1cnc2c(ccn2Cc2ccc(F)cc2)c1)N1CC(N2CCN(C(=O)c3nccs3)CC2)C1` [Cpd 1043, 1-(4-Fluorobenzyl)-5-({3-[4-(1,3-thiazol-2-ylcarbonyl)piperazin-1-yl]azetidin-1-yl}carbonyl)-1H-pyrrolo[2,3-b]pyridine], the Kd at mutant MGL (setting [2]) came out at 0.055 µM. In addition, 16 nM corresponded to half-maximal inhibition in experiment [1] (IC50).
`O=C(c1ccc2c(ccn2-c2cccnc2)c1)N1CC(N2CCN(C(=O)c3nccs3)CC2)C1` [Cpd 1192, 1-Pyridin-3-yl-5-({3-[4-(1,3-thiazol-2-ylcarbonyl)piperazin-1-yl]azetidin-1-yl}carbonyl)-1H-indole]: the Kd on mutant MGL (setting [5]) was 0.035 µM. This compound showed an IC50 in experiment [1] of 109 nM.
As to `O=C(c1ccc(Oc2ccc(Br)cn2)cc1)N1CC(N2CCN(C(=O)c3cscn3)CC2)C1` [Cpd 765], on mutant MGL (setting [3]), the Kd was found to be 3.09 µM. Moreover, in experiment [1], the half-maximal inhibitory concentration (IC50) is 667 nM.
`O=C(c1nccs1)N1CCN(C2CN(C(=O)c3cc4ccn(-c5ccc(F)cc5)c4cc3Cl)C2)CC1` [Cpd 1416]: the Kd on mutant MGL (setting [2]) is 0.015 µM. In experiment [1], the midpoint of inhibition, the IC50, lay at 39 nM.
`O=C(c1ccc2c(ccn2-c2ccc(F)cc2)c1)N1CC(N2CCN(C(=O)c3cocn3)CC2)C1` [Cpd 1428]: the Kd on mutant MGL (setting [4]) amounted to 0.018 µM. Further, the IC50 in experiment [1] is 14 nM.
On to `O=C(c1cscn1)N1CCN(C2CN(C(=O)c3cccc4nc(-c5ccccc5)oc34)C2)CC1` [Cpd 1237], for which the Kd on mutant MGL (setting [6]) is 0.064 µM. This compound also showed an IC50 in experiment [1] of 393 nM.
On to `O=C(c1ccccc1)c1c[nH]c(C(=O)N2CC(N3CCN(C(=O)c4nccs4)CC3)C2)c1` [Cpd 874], for which the Kd at mutant MGL (setting [5]) amounted to 8.46 µM. The compound further came in with a concentration for half-maximal inhibition (IC50) in experiment [1] of 15200 nM.
In the case of `Cc1c(C(=O)N2CCN(C3CN(C(=O)c4cncs4)C3)CC2)sc2cc(C(F)(F)F)ccc12` [Cpd 726], the Kd at mutant MGL (setting [3]) came to 0.127 µM. Inhibition in experiment [1] was half-maximal at 218 nM (IC50).
As to `O=C(c1ccc2c(ccn2-c2ccc(F)cc2)c1)N1CC(N2CCN(C(=O)c3ccc(Cl)s3)CC2)C1` [Cpd 1423], the Kd on mutant MGL (setting [4]) worked out at 0.176 µM. This compound yielded an IC50 in experiment [1] of 278 nM.
As for `O=C(c1ccc2c(c1)ncn2C1CCC(F)(F)CC1)N1CC(N2CCN(C(=O)c3nccs3)CC2)C1` [Cpd 759], at mutant MGL (setting [2]), the Kd came out at 0.037 µM. In experiment [1], this compound had an IC50 of 579 nM.
`O=C(c1ccc2c(ccn2-c2ccc(C(F)(F)F)cn2)c1)N1CC(N2CCN(C(=O)c3nccs3)CC2)C1` [Cpd 1314, 5-({3-[4-(1,3-Thiazol-2-ylcarbonyl)piperazin-1-yl]azetidin-1-yl}carbonyl)-1-[5-(trifluoromethyl)pyridin-2-yl]-1H-indole]: the Kd on mutant MGL (setting [5]) is 0.001 µM. The IC50 in experiment [1] was under 5 nM.
Take `Cc1nc2cc(C(=O)N3CC(N4CCN(C(=O)c5ccccc5)CC4)C3)ccc2n1C1CCCCC1` [Cpd 37, 1-Cyclohexyl-2-methyl-5-({3-[4-(phenylcarbonyl)piperazin-1-yl]azetidin-1-yl}carbonyl)-1H-benzimidazole]: the Kd at mutant MGL (setting [3]) is 0.1 µM. Further, the IC50 in experiment [1] was 5990 nM.

Usually IC50 stands for the concentration that gives 50% inhibition. Low readings indicate inhibition by little substance, high ones a need for much substance.
